{"source": "ChEMBL document CHEMBL4229343", "about": "“Perfluoroarene-based peptide macrocycles that inhibit the Nrf2/Keap1 interaction” (Bioorg Med Chem Lett, 2018)", "note": "*1 amine or outer side, *2 acyl side, *3 side chain or, on linkers, in order; H or OH if unused. Where a SMILES comes first, the peptide text is derived from it. Bridges are numbered along the chain shown (N, C = ends). C6F4(1,4-diyl) = Fc1c(F)c([*:2])c(F)c(F)c1[*:1]"}
{"system": "THP-1", "test": "Antiproliferative activity against human THP1 cells", "assay_type": "cell-based"}
{"smiles": "CC(=O)N[C@H]1CSc2c(F)c(F)c(c(F)c2F)SC[C@@H](C(N)=O)NC(=O)[C@H](CCC(=O)O)NC(=O)CNC(=O)[C@H]([C@@H](C)O)NC(=O)[C@H](CCC(=O)O)NC(=O)[C@@H]2CCCN2C(=O)[C@H](CC(=O)O)NC1=O", "Activity": "Non-Toxic"}
{"smiles": "CC(=O)N[C@H]1CSSC[C@@H](C(N)=O)NC(=O)[C@H](CCC(=O)O)NC(=O)CNC(=O)[C@H]([C@@H](C)O)NC(=O)[C@H](CCC(=O)O)NC(=O)[C@H](CCC(=O)O)NC(=O)[C@H](CC(=O)O)NC1=O", "note": "(Ac-CDEETGEC-NH2; disulfide 1-8)", "Activity": "Non-Toxic"}
{"smiles": "CC(=O)N[C@H]1CSSC[C@@H](C(=O)O)NC(=O)[C@H](CCC(=O)O)NC(=O)CNC(=O)[C@H]([C@@H](C)O)NC(=O)[C@H](CCC(=O)O)NC(=O)[C@H](CCC(=O)O)NC(=O)[C@H](CC(=O)O)NC1=O", "note": "(Ac-CDEETGEC-OH; disulfide 1-8)", "Activity": "Non-Toxic"}
{"smiles": "CC(=O)N[C@H]1CSSC[C@@H](C(N)=O)NC(=O)CNC(=O)[C@H]([C@@H](C)O)NC(=O)[C@H](CCC(=O)O)NC(=O)[C@H](CCC(=O)O)NC1=O", "note": "(Ac-CEETGC-NH2; disulfide 1-6)", "Activity": "Non-Toxic"}
{"smiles": "CC(=O)N[C@H]1CSSC[C@@H](C(N)=O)NC(=O)[C@H](Cc2ccccc2)NC(=O)[C@H](CCC(=O)O)NC(=O)CNC(=O)[C@H]([C@@H](C)O)NC(=O)[C@H](CCC(=O)O)NC(=O)[C@H](CCC(=O)O)NC(=O)[C@H](CC(=O)O)NC(=O)[C@H](CC(C)C)NC1=O", "note": "(Ac-CLDEETGEFC-NH2; disulfide 1-10)", "Activity": "Non-Toxic"}
{"smiles": "CC(=O)N[C@H]1CSc2c(F)c(F)c(c(F)c2F)SC[C@@H](C(N)=O)NC(=O)[C@H](Cc2ccccc2)NC(=O)[C@H](CCC(=O)O)NC(=O)CNC(=O)[C@H]([C@@H](C)O)NC(=O)[C@H](CCC(=O)O)NC(=O)[C@@H]2CCCN2C(=O)[C@H](CC(=O)O)NC(=O)[C@H](CC(C)C)NC1=O", "note": "(Ac-CLDPETGEFC-NH2; linker 1-10 via C6F4(1,4-diyl))", "Activity": "Non-Toxic"}
{"smiles": "C[C@@H](O)[C@@H]1NC(=O)[C@H](CCC(=O)O)NC(=O)[C@H](CCC(=O)O)NC(=O)[C@H](CC(=O)O)NC(=O)[C@@H](N)CSSC[C@@H](C(N)=O)NC(=O)[C@H](CCC(=O)O)NC(=O)CNC1=O", "note": "(H-CDEETGEC-NH2; disulfide 1-8)", "Activity": "Non-Toxic"}
{"molecular_target": "Kelch-like ECH-associated protein 1 (Homo sapiens, UniProt Q14145)", "sequence (Q14145 whole entry, the tested form may be a part)": "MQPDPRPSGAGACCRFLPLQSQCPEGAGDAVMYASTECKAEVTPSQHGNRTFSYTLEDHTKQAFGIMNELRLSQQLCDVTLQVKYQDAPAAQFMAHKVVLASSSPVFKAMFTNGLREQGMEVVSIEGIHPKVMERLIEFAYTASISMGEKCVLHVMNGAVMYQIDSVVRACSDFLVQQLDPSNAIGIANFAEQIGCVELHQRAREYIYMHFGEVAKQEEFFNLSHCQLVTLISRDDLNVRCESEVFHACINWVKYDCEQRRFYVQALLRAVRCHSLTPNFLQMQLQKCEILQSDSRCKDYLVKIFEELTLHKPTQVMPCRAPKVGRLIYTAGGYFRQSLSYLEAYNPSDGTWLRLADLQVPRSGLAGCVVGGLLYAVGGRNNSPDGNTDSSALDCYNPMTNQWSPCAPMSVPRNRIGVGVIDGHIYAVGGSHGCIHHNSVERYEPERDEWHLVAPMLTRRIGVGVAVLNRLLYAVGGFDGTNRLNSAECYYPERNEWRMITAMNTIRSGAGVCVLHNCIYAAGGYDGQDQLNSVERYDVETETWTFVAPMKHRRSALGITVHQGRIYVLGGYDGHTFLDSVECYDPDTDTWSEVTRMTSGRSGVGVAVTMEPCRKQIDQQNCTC", "test": "Displacement of F-14 from Keap1 Kelch domain (unknown origin) expressed in Escherichia coli BL21 (DE3) after 15 mins by fluorescence polarization assay", "units": {"Ki": "µM"}}
{"smiles": "CC(=O)N[C@H]1CSSC[C@@H](C(N)=O)NC(=O)CNC(=O)[C@H]([C@@H](C)O)NC(=O)[C@H](CCC(=O)O)NC(=O)[C@H](CCC(=O)O)NC1=O", "note": "(Ac-CEETGC-NH2; disulfide 1-6)", "Ki": 151}
